Laboratory results taken from article PMC13104650 (Acta Pharmaceutica Sinica. B, 2025).
pKd: −log10 of the molar value.

Target: T1, TXNRD1 (cytosolic thioredoxin reductase 1) (Rattus norvegicus, UniProt O89049)
T1 sequence (O89049 1-499): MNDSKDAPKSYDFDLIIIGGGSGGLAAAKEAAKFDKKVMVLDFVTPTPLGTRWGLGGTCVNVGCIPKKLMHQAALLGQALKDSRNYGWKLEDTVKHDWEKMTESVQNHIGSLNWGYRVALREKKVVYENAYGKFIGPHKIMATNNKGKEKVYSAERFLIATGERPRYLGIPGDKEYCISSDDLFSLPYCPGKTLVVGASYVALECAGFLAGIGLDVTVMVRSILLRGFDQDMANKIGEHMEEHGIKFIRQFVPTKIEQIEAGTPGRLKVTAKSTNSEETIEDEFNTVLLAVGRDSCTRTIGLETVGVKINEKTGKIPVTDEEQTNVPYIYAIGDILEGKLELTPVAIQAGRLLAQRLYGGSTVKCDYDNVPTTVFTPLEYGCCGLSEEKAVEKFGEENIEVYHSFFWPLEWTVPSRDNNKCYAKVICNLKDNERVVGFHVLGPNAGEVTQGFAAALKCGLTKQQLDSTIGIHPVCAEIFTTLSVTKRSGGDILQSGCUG
Assay: ITC
Type: binding

Question: C=C1C(=O)O[C@@H]2C[C@@]3(C)CCCC(=C)[C@@H]3C[C@H]12 [IAL, Isoalantolactone] was tested. Which pKd did it give?
Answer: Its pKd is 7.08.
